Inhibition data for 3 compounds are collected here from ChEMBL document CHEMBL3132769, “Fragment growing to retain or alter the selectivity of anchored kinase hinge-binding fragments” (Medchemcomm, 2014).

Assay [1] has as its target Calcium/calmodulin-dependent protein kinase type II subunit gamma (Homo sapiens) (UniProt Q13555). Briefly: Inhibition of human CAMK2 gamma catalytic domain expressed in baculovirus assessed as substrate phosphorylation using fluorescence-labelled peptides as substrate at 420 uM after 90 mins by microfluidic peptide phosphorylation assay.
Assay [2] concerns the target T1, cGMP-dependent protein kinase 1 (Homo sapiens) (UniProt Q13976).
T1 sequence (whole entry): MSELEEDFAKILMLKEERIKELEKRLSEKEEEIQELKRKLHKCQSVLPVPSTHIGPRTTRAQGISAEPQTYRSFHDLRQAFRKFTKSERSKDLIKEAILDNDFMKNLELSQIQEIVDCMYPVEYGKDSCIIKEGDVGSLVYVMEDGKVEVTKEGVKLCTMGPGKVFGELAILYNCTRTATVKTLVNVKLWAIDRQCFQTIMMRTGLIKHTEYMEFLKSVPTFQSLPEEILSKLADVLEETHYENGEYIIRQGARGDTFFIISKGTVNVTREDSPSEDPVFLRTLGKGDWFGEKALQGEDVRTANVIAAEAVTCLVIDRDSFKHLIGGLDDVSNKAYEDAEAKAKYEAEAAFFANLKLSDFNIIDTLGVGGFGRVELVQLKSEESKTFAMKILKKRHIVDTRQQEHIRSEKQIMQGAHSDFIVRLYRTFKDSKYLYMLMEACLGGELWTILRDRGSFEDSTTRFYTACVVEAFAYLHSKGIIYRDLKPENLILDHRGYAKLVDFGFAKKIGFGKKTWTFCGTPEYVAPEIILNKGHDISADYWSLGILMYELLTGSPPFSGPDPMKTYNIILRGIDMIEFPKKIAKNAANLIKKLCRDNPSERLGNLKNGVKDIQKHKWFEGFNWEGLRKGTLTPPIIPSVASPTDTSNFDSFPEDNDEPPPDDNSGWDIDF
The assay is described as follows: Inhibition of human full length PKG-1a expressed in baculovirus assessed as substrate phosphorylation using fluorescence-labelled peptides as substrate at 0.06 uM after 90 mins by microfluidic peptide phosphorylation assay.

Assay [3] addresses T2, Serine/threonine-protein kinase Nek2 (Homo sapiens) (UniProt P51955).
T2 sequence (whole entry): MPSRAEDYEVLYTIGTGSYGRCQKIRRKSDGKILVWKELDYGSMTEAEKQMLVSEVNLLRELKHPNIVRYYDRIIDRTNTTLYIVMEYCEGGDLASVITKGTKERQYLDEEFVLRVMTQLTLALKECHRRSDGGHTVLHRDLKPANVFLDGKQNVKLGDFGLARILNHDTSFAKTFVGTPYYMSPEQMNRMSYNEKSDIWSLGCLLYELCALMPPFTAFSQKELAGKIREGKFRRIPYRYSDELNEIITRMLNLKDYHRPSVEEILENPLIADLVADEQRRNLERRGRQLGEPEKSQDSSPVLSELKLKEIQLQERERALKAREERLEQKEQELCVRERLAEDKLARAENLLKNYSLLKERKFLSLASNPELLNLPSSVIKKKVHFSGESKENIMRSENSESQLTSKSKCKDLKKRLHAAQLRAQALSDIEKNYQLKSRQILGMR
Briefly: Inhibition of human full length NEK2 expressed in baculovirus assessed as substrate phosphorylation using fluorescence-labelled peptides as substrate at 0.06 uM after 90 mins by microfluidic peptide phosphorylation assay.

Assay [4] deals with T3, Receptor-type tyrosine-protein kinase FLT3 (Homo sapiens), P36888 [D835Y].
T3 sequence (whole entry): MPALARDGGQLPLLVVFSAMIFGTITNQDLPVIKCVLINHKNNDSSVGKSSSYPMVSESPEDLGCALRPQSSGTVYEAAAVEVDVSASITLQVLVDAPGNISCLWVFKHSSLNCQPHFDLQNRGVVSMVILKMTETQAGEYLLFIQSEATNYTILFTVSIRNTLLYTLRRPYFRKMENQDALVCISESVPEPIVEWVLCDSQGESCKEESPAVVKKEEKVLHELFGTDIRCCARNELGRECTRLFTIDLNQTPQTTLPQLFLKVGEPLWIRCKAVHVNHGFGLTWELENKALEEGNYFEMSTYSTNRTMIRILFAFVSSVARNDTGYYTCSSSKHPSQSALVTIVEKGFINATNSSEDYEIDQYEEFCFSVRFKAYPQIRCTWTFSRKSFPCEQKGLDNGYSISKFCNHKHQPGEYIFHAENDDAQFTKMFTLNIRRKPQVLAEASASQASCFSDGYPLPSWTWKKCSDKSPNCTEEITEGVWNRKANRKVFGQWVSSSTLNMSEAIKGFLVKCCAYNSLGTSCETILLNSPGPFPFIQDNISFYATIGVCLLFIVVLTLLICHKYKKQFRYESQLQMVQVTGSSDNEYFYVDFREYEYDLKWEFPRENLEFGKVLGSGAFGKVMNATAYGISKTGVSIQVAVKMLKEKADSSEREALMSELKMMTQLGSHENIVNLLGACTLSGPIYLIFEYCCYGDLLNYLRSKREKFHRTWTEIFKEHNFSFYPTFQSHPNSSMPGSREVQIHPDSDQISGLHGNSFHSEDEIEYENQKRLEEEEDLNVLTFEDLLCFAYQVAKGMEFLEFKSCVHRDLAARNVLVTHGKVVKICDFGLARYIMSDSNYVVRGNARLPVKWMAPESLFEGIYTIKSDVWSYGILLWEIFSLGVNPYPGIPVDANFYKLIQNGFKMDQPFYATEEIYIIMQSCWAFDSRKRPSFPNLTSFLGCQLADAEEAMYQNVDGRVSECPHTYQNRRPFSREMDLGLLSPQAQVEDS
Briefly: Inhibition of human FLT3 D835Y mutant catalytic domain expressed in baculovirus assessed as substrate phosphorylation using fluorescence-labelled peptides as substrate at 2 uM after 90 mins by microfluidic peptide phosphorylation assay.

As a reminder, the inhibition is the drop in the measured response relative to a control, in per cent.

Chain of Calcium/calmodulin-dependent protein kinase type II subunit gamma (Homo sapiens) (Q13555 whole entry, the tested form may be a part): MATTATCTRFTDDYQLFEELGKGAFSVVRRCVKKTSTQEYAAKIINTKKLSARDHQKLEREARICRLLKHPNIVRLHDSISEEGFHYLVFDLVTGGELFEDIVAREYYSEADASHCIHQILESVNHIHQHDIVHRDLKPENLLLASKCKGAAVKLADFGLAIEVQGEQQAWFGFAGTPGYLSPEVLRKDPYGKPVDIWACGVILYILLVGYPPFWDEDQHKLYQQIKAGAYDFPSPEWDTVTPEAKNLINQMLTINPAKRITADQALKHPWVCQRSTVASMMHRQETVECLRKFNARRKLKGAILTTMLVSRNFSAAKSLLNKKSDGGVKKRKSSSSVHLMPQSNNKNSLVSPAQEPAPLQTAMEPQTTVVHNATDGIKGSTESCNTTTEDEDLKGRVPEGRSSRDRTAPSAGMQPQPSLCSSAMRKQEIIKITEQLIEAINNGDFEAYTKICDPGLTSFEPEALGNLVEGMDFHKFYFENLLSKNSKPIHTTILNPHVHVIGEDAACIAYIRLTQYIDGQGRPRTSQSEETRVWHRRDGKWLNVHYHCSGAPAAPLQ

Take `c1nc(N2CCOCC2)c2nc[nH]c2n1`: the inhibition in assay [1] was found to be 42%.
With `NC1(Cc2ccc(Cl)cc2)CCN(c2ncnc3[nH]ccc23)CC1`, the inhibition in assay [2] and in assay [3] was 0% each time.
As for `NC1CCN(c2ncnc3[nH]ccc23)CC1`, the inhibition in assay [4] worked out at 0%.
